Measurements from patent US20230146455A1, “TREATMENT OF INFLAMMATORY DISEASES WITH PEPTIDES AND PHARMACEUTICAL COMPOSITIONS” (Yuyu Pharma, Inc., priority 2020, published 2023).
Where “and” joins values, the source holds several entries; their conditions need not be identical. Identical values can stand only once. Where a SMILES comes first, the peptide text is derived from it. [ ]: non-standard residue; d: D form. Hyp = O=C(O)[C@@H]1C[C@@H](O)CN1

Tested on: human PBMCs
Assay: PBMC cell counts (total, live, viability; trypan blue, Countess) with and without LPS and test articles (Example 9)
Assay type: cell-based
Description: Treatment Human PBMCs were pretreated with YY-101, YDE-011 and YDE-043 or reference compound; Xiidra® at various concentration (ranging from 1 nM to 100 uM) for 2 h before stimulation. An equal volume of 0.5% DMSO was used as a vehicle control. Then, the cells were treated with LPS at 5 ug/ml. The supernatants from treated cells were harvested at 24 h and placed in a 96 well for Luminex cytokine & chemokine profiling using a Luminex 200 multiplex assay (Luminex; R&D system, USA).
The main study arm with triplicate wells per group in a 24-well plate: • 1. Blank • 2. PBMC: 0.5% DMSO • 3. PBMC+LPS (5 ug/ml) • 4. PBMC+YY-101 100 uM • 5. PBMC+YY-101 10 uM • 6. PBMC+YY-101 1 uM • 7. PBMC+YY-101 0.1 uM • 8. PBMC+YY-101 0.01 uM • 9. PBMC+LPS (5 ug/ml)+Xiidra®100 uM • 10. PBMC+LPS (5 ug/ml)+Xiidra® 10 uM • 11. PBMC+LPS (5 ug/ml)+Xiidra® 1 uM • 12. PBMC+LPS (5 ug/ml)+Xiidra®0.1 uM • 13. PBMC+LPS (5 ug/ml)+Xiidra®0.01 uM • 14. PBMC+LPS (5 ug/ml)+Xiidra®0.001 uM • 15. PBMC+LPS (5 ug/ml)+YY-101 100 uM • 16. PBMC+LPS (5 ug/ml)+YY-101 10 uM • 17. PBMC+LPS (5 ug/ml)+YY-101 1 uM • 18. PBMC+LPS (5 ug/ml)+YY-101 0.1 uM • 19. PBMC+LPS (5 ug/ml)+YY-101 0.01 uM • 20. PBMC+LPS (5 ug/ml)+YY-101 0.001 uM • 21. PBMC+LPS (5 ug/ml)+YDE-011 100 uM • 22. PBMC+LPS (5 ug/ml)+YDE-011 10 uM • 23. PBMC+LPS (5 ug/ml)+YDE-011 1 uM • 24. PBMC+LPS (5 ug/ml)+YDE-011 0.1 uM • 25. PBMC+LPS (5 ug/ml)+YDE-011 0.01 uM • 26. PBMC+LPS (5 ug/ml)+YDE-011 0.001 uM • 27. PBMC+LPS (5 ug/ml)+YDE-043 100 uM • 28. PBMC+LPS (5 ug/ml)+YDE-043 10 uM • 29. PBMC+LPS (5 ug/ml)+YDE-043 1 uM • 30. PBMC+LPS (5 ug/ml)+YDE-043 0.1 uM • 31. PBMC+LPS (5 ug/ml)+YDE-043 0.01 uM • 32. PBMC+LPS (5 ug/ml)+YDE-043 0.001 uM
The number of PBMCs was measured after 24 hr of treatment. The culture both and trypan blue were diluted 1:1 and 10 ul was added to Countess cell counting chamber (Thermo fisher, USA). The number of PBMCs was measured using a Countess automated cell counter (Thermo fisher, USA).

[1] = PBMC + LPS(5 ug/ml) + compound 0.001 uM, 24 hr
[2] = PBMC + LPS(5 ug/ml) + compound 0.01 uM, 24 hr
[3] = PBMC + LPS(5 ug/ml) + compound 0.1 uM, 24 hr
[4] = PBMC + LPS(5 ug/ml) + compound 1 uM, 24 hr
[5] = PBMC + LPS(5 ug/ml) + compound 10 uM, 24 hr
[6] = PBMC + LPS(5 ug/ml) + compound 100 uM, 24 hr
[7] = PBMC + LPS(5 ug/ml) + test article 0.001 uM, Mean
[8] = PBMC + LPS(5 ug/ml) + test article 0.001 uM, single replicates
[9] = PBMC + LPS(5 ug/ml) + test article 0.01 uM, Mean
[10] = PBMC + LPS(5 ug/ml) + test article 0.01 uM, single replicates
[11] = PBMC + LPS(5 ug/ml) + test article 0.1 uM, Mean
[12] = PBMC + LPS(5 ug/ml) + test article 0.1 uM, single replicates
[13] = PBMC + LPS(5 ug/ml) + test article 1 uM, Mean
[14] = PBMC + LPS(5 ug/ml) + test article 1 uM, single replicates
[15] = PBMC + LPS(5 ug/ml) + test article 10 uM, Mean
[16] = PBMC + LPS(5 ug/ml) + test article 10 uM, single replicates
[17] = PBMC + LPS(5 ug/ml) + test article 100 uM, Mean
[18] = PBMC + LPS(5 ug/ml) + test article 100 uM, single replicates
[19] = PBMC + LPS(5 ug/ml), test article 0.001 uM, Mean
[20] = PBMC + LPS(5 ug/ml), test article 0.001 uM, single replicates
[21] = PBMC + LPS(5 ug/ml), test article 0.01 uM, Mean
[22] = PBMC + LPS(5 ug/ml), test article 0.01 uM, single replicates
[23] = PBMC + LPS(5 ug/ml), test article 0.1 uM, Mean
[24] = PBMC + LPS(5 ug/ml), test article 0.1 uM, single replicates
[25] = PBMC + LPS(5 ug/ml), test article 1 uM, Mean
[26] = PBMC + LPS(5 ug/ml), test article 1 uM, single replicates
[27] = PBMC + LPS(5 ug/ml), test article 10 uM, Mean
[28] = PBMC + LPS(5 ug/ml), test article 10 uM, single replicates

CC(C)C[C@H](NC(=O)CNC(=O)[C@H](CC(=O)O)NC(=O)[C@H](CCC(N)=O)NC(=O)CNC(=O)[C@@H]1C[C@@H](O)CN1)C(=O)N[C@@H](C)C(=O)NCC(=O)N1CCC[C@H]1C(=O)N[C@@H](CCCCN)C(=O)O [YY-101] (H-[Hyp]GQDGLAGPK-OH; N-terminus and C-terminus assumed)
Live cell [1]: 6.5 ± 0.4 10^5/ml | Total cell [1]: 7.7 ± 0.6 10^5/ml | Live cell [2]: 6.2 ± 0.1 10^5/ml | Total cell [2]: 8.1 ± 0.6 10^5/ml | Live cell [3]: 5.9 ± 0.3 10^5/ml | Total cell [3]: 7.8 ± 0.8 10^5/ml | Live cell [4]: 6.5 ± 0.3 10^5/ml | Total cell [4]: 9.8 ± 0.6 10^5/ml | Live cell [5]: 6.7 ± 0.5 10^5/ml | Total cell [5]: 9.1 ± 1.1 10^5/ml | Live cell [6]: 5.8 ± 0.4 10^5/ml | Total cell [6]: 7.8 ± 1.0 10^5/ml | Live cell [7]: 6.5 10^5/ml | Live cell (10^5/ml) [7]: 6.5 10^5/ml | Live cell, Mean [7]: 6.5 10^5/ml | Live cell (PBMC + LPS(5 ug/ml) + test article 0.001 uM, individual replicates (1st, 2nd, 3rd)): 5.7 10^5/ml and 7.1 10^5/ml and 6.6 10^5/ml | Live cell [8]: 5.7 10^5/ml and 7.1 10^5/ml and 6.6 10^5/ml | Live cell (10^5/ml) [8]: 5.7 10^5/ml and 7.1 10^5/ml and 6.6 10^5/ml | Live cell (PBMC + LPS(5 ug/ml) + test article 0.001 uM, single replicates (1st, 2nd, 3rd)): 5.7 10^5/ml and 7.1 10^5/ml and 6.6 10^5/ml | Live cell [9]: 6.2 10^5/ml | Live cell (10^5/ml) [9]: 6.2 10^5/ml | Live cell, Mean [9]: 6.2 10^5/ml | Live cell (PBMC + LPS(5 ug/ml) + test article 0.01 uM, individual replicates (1st, 2nd, 3rd)): 6.4 10^5/ml and 6.0 10^5/ml and 6.1 10^5/ml | Live cell [10]: 6.4 10^5/ml and 6.0 10^5/ml and 6.1 10^5/ml | Live cell (10^5/ml) [10]: 6.4 10^5/ml and 6.0 10^5/ml and 6.1 10^5/ml | Live cell (PBMC + LPS(5 ug/ml) + test article 0.01 uM, single replicates (1st, 2nd, 3rd)): 6.4 10^5/ml and 6.0 10^5/ml and 6.1 10^5/ml | Live cell [11]: 5.9 10^5/ml | Live cell (10^5/ml) [11]: 5.9 10^5/ml | Live cell, Mean [11]: 5.9 10^5/ml | Live cell [12]: 6.2 10^5/ml (2×) and 5.2 10^5/ml | Live cell (10^5/ml) [12]: 6.2 10^5/ml (2×) and 5.2 10^5/ml | Live cell (PBMC + LPS(5 ug/ml) + test article 0.1 uM, single replicates (1st, 2nd, 3rd)): 6.2 10^5/ml (2×) and 5.2 10^5/ml | Live cell [13]: 6.5 10^5/ml | Live cell (10^5/ml) [13]: 6.5 10^5/ml | Live cell, Mean [13]: 6.5 10^5/ml | Live cell [14]: 6.3 10^5/ml and 7.1 10^5/ml and 6.2 10^5/ml | Live cell (10^5/ml) [14]: 6.3 10^5/ml and 7.1 10^5/ml and 6.2 10^5/ml | Live cell (PBMC + LPS(5 ug/ml) + test article 1 uM, single replicates (1st, 2nd, 3rd)): 6.3 10^5/ml and 7.1 10^5/ml and 6.2 10^5/ml | Live cell [15]: 6.7 10^5/ml | Live cell (10^5/ml) [15]: 6.7 10^5/ml | Live cell, Mean [15]: 6.7 10^5/ml | Live cell [16]: 6.0 10^5/ml and 6.4 10^5/ml and 7.6 10^5/ml | Live cell (10^5/ml) [16]: 6.0 10^5/ml and 6.4 10^5/ml and 7.6 10^5/ml | Live cell (PBMC + LPS(5 ug/ml) + test article 10 uM, single replicates (1st, 2nd, 3rd)): 6.0 10^5/ml and 6.4 10^5/ml and 7.6 10^5/ml | Live cell [17]: 5.8 10^5/ml | Live cell (10^5/ml) [17]: 5.8 10^5/ml | Live cell, Mean [17]: 5.8 10^5/ml | Live cell [18]: 6.3 10^5/ml and 6.2 10^5/ml and 5.0 10^5/ml | Live cell (10^5/ml) [18]: 6.3 10^5/ml and 6.2 10^5/ml and 5.0 10^5/ml | Live cell (PBMC + LPS(5 ug/ml) + test article 100 uM, single replicates (1st, 2nd, 3rd)): 6.3 10^5/ml and 6.2 10^5/ml and 5.0 10^5/ml | Live cell (PBMC + LPS(5 ug/ml), 0.001 uM, Mean): 6.5 10^5/ml | Live cell (PBMC + LPS(5 ug/ml), 0.001 uM, single replicates): 5.7 10^5/ml and 7.1 10^5/ml and 6.6 10^5/ml | Live cell (PBMC + LPS(5 ug/ml), 0.01 uM, Mean): 6.2 10^5/ml | Live cell (PBMC + LPS(5 ug/ml), 0.01 uM, single replicates): 6.4 10^5/ml and 6.0 10^5/ml and 6.1 10^5/ml | Live cell (PBMC + LPS(5 ug/ml), 0.1 uM, Mean): 5.9 10^5/ml | Live cell (PBMC + LPS(5 ug/ml), 0.1 uM, single replicates): 6.2 10^5/ml (2×) and 5.2 10^5/ml | Live cell (PBMC + LPS(5 ug/ml), 1 uM, Mean): 6.5 10^5/ml | Live cell (PBMC + LPS(5 ug/ml), 1 uM, single replicates): 6.3 10^5/ml and 7.1 10^5/ml and 6.2 10^5/ml | Live cell (PBMC + LPS(5 ug/ml), 10 uM, Mean): 6.7 10^5/ml | Live cell (PBMC + LPS(5 ug/ml), 10 uM, single replicates): 6.0 10^5/ml and 6.4 10^5/ml and 7.6 10^5/ml | Live cell (PBMC + LPS(5 ug/ml), 100 uM, Mean): 5.8 10^5/ml | Live cell (PBMC + LPS(5 ug/ml), 100 uM, single replicates): 6.3 10^5/ml and 6.2 10^5/ml and 5.0 10^5/ml | Live cell [19]: 6.5 10^5/ml | Total cell count [19]: 7.7 10^5/ml | Live cell [20]: 5.7 10^5/ml and 7.1 10^5/ml and 6.6 10^5/ml | Total cell count [20]: 6.7 10^5/ml and 8.8 10^5/ml and 7.5 10^5/ml | Viability [20]: 84.0% and 80.0% and 89.0% | Live cell [21]: 6.2 10^5/ml | Total cell count [21]: 8.1 10^5/ml | Live cell [22]: 6.4 10^5/ml and 6.0 10^5/ml and 6.1 10^5/ml | Total cell count [22]: 9.2 10^5/ml and 8.1 10^5/ml and 7.0 10^5/ml | Viability [22]: 70.0% and 75.0% and 87.0% | Live cell [23]: 5.9 10^5/ml | Total cell count [23]: 7.8 10^5/ml | Live cell [24]: 6.2 10^5/ml (2×) and 5.2 10^5/ml | Total cell count [24]: 9.3 10^5/ml and 6.7 10^5/ml and 7.5 10^5/ml | Viability [24]: 67.0% and 77.0% and 83.0% | Live cell [25]: 6.5 10^5/ml | Total cell count [25]: 9.8 10^5/ml | Live cell [26]: 6.3 10^5/ml and 7.1 10^5/ml and 6.2 10^5/ml | Total cell count [26]: 8.8 10^5/ml and 9.7 10^5/ml and 11.0 10^5/ml | Viability [26]: 72.0% and 73.0% and 55.0% | Live cell [27]: 6.7 10^5/ml | Total cell count [27]: 9.1 10^5/ml | Live cell [28]: 6.0 10^5/ml and 6.4 10^5/ml and 7.6 10^5/ml | Total cell count [28]: 7.3 10^5/ml and 9.0 10^5/ml and 11.0 10^5/ml | Viability [28]: 83.0% and 71.0% and 67.0%
